Results as given in patent US20070004620A1, “Fp receptor antagonists or pgf2 alpha antagonists for treating pathological conditions of the uterus” (priority 2002, published 2007).
Entries after “also recorded” stand apart in the source; their conditions may differ.

How the values were obtained:
PGF2α receptor = conditions: cited from earlier work
Ishikawa cells [1] = experiment: Proliferation assay (BrdU incorporation ELISA) in Ishikawa cells; type: cell-based, human; conditions: U73122 2μM, no PGF2α
Method: Proliferation of Ishikawa cells was determined using a BrdU incorporation ELISA (Roche Diagnostics GmbH, Mannheim, Germany). Briefly, Ishikawa cells were seeded at 5×10^3 cells per well in a 96-well plate and allowed to adhere overnight. Cells were next starved for 24 hr with indomethacin 1.5 μg/ml before 24 h PGF2α treatment (1 nM-1 μM) in serum-free medium containing indomethacin. Inhibitors were added to cells for 60 min before PGF2α with the control well receiving the same concentration of vehicle. Following 24 h treatment, cells were labelled with BrdU for 4 h, then fixed and assayed for BrdU incorporation using standard immunohistochemical techniques. Results were plotted as percentages of untreated cells.

TP = biological target: T1, TP (Homo sapiens, UniProt P21731); conditions: 10 μM; cited from earlier work
T1 sequence (P21731 1-343): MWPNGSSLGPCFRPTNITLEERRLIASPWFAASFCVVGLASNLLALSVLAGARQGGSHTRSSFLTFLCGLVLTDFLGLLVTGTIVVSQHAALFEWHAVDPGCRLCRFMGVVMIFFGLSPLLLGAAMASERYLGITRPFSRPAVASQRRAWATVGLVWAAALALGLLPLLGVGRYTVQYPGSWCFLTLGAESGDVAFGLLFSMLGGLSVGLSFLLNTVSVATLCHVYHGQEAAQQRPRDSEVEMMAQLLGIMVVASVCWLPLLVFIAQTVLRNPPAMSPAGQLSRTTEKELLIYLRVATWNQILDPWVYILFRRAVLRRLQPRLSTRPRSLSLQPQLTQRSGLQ

EP4 = EP4 (Homo sapiens, UniProt P35408); conditions: 10 μM; cited from earlier work
EP2 = EP2 (Homo sapiens, UniProt P43116); conditions: 10 μM; cited from earlier work
DP = biological target: T2, DP (Homo sapiens, UniProt Q13258); conditions: 10 μM; cited from earlier work
T2 sequence (Q13258 1-359): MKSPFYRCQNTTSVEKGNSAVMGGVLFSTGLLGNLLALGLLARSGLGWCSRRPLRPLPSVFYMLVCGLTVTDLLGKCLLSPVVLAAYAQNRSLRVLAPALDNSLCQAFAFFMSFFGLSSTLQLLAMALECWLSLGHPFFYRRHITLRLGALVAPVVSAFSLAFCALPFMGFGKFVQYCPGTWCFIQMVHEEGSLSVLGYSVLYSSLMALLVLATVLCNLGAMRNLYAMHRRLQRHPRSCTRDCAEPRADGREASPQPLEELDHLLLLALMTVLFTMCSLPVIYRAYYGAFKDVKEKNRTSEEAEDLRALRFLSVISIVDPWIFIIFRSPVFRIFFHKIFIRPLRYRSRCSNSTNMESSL

Ishikawa cells [2] = experiment: Total inositol phosphate (InsP) assay in Ishikawa cells; type: cell-based, human; conditions: PGF2α 100 nM
Method: (§1) PGF2α stimulation of total InsP production was as described (21). Briefly, tissue samples or Ishikawa cells were incubated with inositol free DMEM containing 1% dialyzed heat-inactivated FCS and 0.5 μCi/well myo-[^3H]inositol (Amersham Pharmacia Biotech) for 48 hours. Medium was removed, and cells washed with 1 ml buffer (140 mM NaCl, 20 mM HEPES, 4 mM KCl, 8 mM glucose, 1 mM MgCl2, 1 mM CaCl2, 1 mg/ml bovine serum albumin) containing 10 mM LiCl. Cells were then incubated for 1 hour at 37° C. in 1 ml buffer with or without inhibitors. Following incubation agonist was added at the required concentration and cells incubated for 1 hour. Reactions were terminated by the removal of agonist and the addition of 500 μl ice cold 10 mM formic acid, which was incubated for 30 minutes at 4° C. Total [^3H] inositol phosphates was separated from the formic acid cell extracts on AG 1-X8 anion exchange resin (Bio-Rad) and eluted with a 1 M ammonium formate/0.1 M formic acid solution. The associated radioactivity was determined by liquid scintillation counting and plotted relative to protein concentrations determined using the modified Lowry method.

HCT-8 = HCT-8 human colon adenocarcinoma cell line; cited from earlier work
HT-29 = HT-29 human colon adenocarcinoma cell line; cited from earlier work
human endometrium = experiment: Total inositol phosphate (InsP) assay in human endometrium tissue; type: cell-based
Method: as §1

Ishikawa cells [3] = experiment: ERK phosphorylation in Ishikawa cells; type: cell-based, human; conditions: 100 nM, treatment for 10 min
Method: ERK phosphorylation in Ishikawa cells. PGF2α 100 nM was incubated for 10 and 30 min. U73122 2 μM was pre-incubated for 60 min before treatment with PGF2α.

EP4, sequence (P35408 whole entry): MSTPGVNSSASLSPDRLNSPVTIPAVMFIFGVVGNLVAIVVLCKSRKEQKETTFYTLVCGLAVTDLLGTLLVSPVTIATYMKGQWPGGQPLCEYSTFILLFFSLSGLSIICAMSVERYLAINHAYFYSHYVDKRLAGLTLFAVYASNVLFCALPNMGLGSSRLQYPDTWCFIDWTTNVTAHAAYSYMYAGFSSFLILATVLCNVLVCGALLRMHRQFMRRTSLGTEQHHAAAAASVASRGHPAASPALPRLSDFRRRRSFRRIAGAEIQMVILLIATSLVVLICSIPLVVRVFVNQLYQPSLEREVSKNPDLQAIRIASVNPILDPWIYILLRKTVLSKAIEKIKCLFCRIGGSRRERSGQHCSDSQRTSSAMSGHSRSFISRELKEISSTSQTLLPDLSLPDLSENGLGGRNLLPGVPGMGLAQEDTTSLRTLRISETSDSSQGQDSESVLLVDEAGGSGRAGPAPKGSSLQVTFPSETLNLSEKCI
EP2, sequence (P43116 whole entry): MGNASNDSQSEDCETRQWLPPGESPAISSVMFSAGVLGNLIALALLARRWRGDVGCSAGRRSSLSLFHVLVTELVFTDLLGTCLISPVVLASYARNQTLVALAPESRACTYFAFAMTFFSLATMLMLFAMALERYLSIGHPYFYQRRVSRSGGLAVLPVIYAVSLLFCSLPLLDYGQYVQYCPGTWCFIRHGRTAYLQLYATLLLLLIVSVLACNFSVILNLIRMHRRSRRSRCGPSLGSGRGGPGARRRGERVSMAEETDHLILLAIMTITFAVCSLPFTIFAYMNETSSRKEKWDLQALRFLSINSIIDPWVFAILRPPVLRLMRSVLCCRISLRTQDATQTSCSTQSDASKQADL

For `Cc1ccc(S(=O)(=O)NC(=O)NN2CCCCCC2)cc1` [tolazamide], the “antagonist activity at the PGF2α (FP) receptor” value (“antagonist activity at the PGF2α” below) (PGF2α receptor) is listed as “very weak antagonists”.
For `CCCCNC(=O)NS(=O)(=O)c1ccc(C)cc1` [tolbutamide], the “antagonist activity at the PGF2α” value (PGF2α receptor) is listed as “very weak antagonists”.
With `COc1ccc2c(c1)CC[C@@H]1[C@@H]2CC[C@]2(C)[C@@H](NCCCCCCN3C(=O)C=CC3=O)CC[C@@H]12` [U73122] the “basal proliferation after pre-incubation with inhibitor” value (Ishikawa cells [1]) was 93.9±1.9%.
In the case of `CCCCC(F)[C@H](O)/C=C/[C@H]1CC[C@H](O)[C@@H]1C/C=C\CCCC(=O)O` (stereo partly drawn) [AL-3138, 11-deoxy-16-fluoro PGF2α], the “agonist activity at the PGF2α (FP) receptor” value (PGF2α receptor) is listed as “weak partial agonist; also recorded: partial agonist of low efficacy” and the “antagonist activity at the PGF2α” value (PGF2α receptor) is listed as “highly selective antagonist”.
In the case of `O=C(O)CCC/C=C\C[C@@H]1[C@@H](/C=C/[C@H](O)C2Cc3ccccc3C2)[C@@H](F)C[C@@H]1O` [AL-8810, (5Z, 13E)-(9S,11S,15R)-9,15-dihydroxy-11-fluoro-15-(2-indanyl)-16,17,18,19,20-pentanor-5,13-prostadienoic acid], the “inhibition of functional responses of TP” value (TP) is listed as “not to significantly inhibit”, the “inhibition of functional responses of EP4” value (EP4) is listed as “not to significantly inhibit” and the “inhibition of functional responses of EP2” value (EP2) is listed as “not to significantly inhibit”. The “inhibition of functional responses of DP” value (DP) was “not to significantly inhibit”, the “FP receptor antagonist potency” value (PGF2α receptor) was “micromolar” and the “agonist activity at the PGF2α (FP) receptor” value (PGF2α receptor) was “weak partial agonist”. For the same compound, the “antagonist activity at the PGF2α” value (PGF2α receptor) was “highly selective antagonist”.
For prostaglandin F2α [PGF2α], the “total InsP, maximum” value (Ishikawa cells [2]) is listed as 29 cpm/mg protein, the “proliferation by PGF2α” value (HCT-8) is listed as “lack of proliferation” and the “proliferation by PGF2α” value (HT-29) is listed as “lack of proliferation”. For the same compound, the “concentration at which maximal InsP mobilisation was observed” value (human endometrium) was 100 nM and the “fold increase in phosphorylated ERK intensity compared to native ERK” value (Ishikawa cells [3]) was 6.6±0.7 fold.
